The subject of one data set is type 2 diabetic mice. Kind of data set: Blood sugar lowering effect in high-sugar and high-fat diet-induced type 2 diabetes mouse model. It is filed as in vivo, C57BL\6J mice. The text has this: A high-sugar and high-fat diet-induced type 2 diabetes mouse model was used in this experiment, and the following tests were mainly conducted: • 1) Effect of single intraperitoneal administration on basal blood glucose, glucose tolerance and insulin sensitivity in diabetic mice. • 2) Effect of single gavage administration on glucose tolerance and insulin sensitivity in diabetic mice. • 3) Effect of continuous chronic intraperitoneal administration on basal blood glucose in diabetic mice.
C57BL\6J mice were fed with a high-sugar and high-fat diet for 3 consecutive months. The test experiment was conducted after the average body weight of the mice stabilized at more than 50g and the average basal blood sugar value stabilized at more than 12mmol/L.
Blood glucose level was mainly measured by measuring tail vein blood using a blood glucose meter. For the test of basal blood glucose effect, the mice were on a normal diet. The basal blood glucose value before administration was first measured, and then a single intraperitoneal injection or a single gavage of the yohimbine derivative C19 (10 mg/kg mouse body weight) was given, and the venous blood glucose level was measured 15, 30, 60, 90, and 120 minutes after administration. The mouse glucose tolerance test was performed after the mouse has eaten for 16 hours overnight. 30 minutes after a single intraperitoneal injection or a single gavage of the yohimbine derivative C19 (10 mg/kg mouse body weight), glucose (1.5 g/kg) was injected intraperitoneally, and the venous blood glucose level was measured 15, 30, 60, 90, and 120 minutes later. Mouse insulin sensitivity was tested after the mouse has eaten for 6 hours. 30 minutes after a single intraperitoneal injection or single gavage of yohimbine derivative C19 (10 mg/kg mouse body weight), insulin (1 UI/kg) was injected intraperitoneally, and the venous blood glucose level was measured 15, 30, 60, 90, and 120 minutes later. For the effect of chronic administration on blood glucose levels, diabetic mice were intraperitoneally injected with yohimbine derivative C19 (10 mg/kg) every day for 12 consecutive days, and the basal blood glucose level of mice under free diet was measured every day before drug injection. The control group was injected with normal saline or gavage.

The target of another data set is T1, α2A-AR (Homo sapiens, UniProt P08913).
T1 construct: expressed in transfected cells; stably expressing α2A-AR/Gα16
T1 sequence (P08913 1-465): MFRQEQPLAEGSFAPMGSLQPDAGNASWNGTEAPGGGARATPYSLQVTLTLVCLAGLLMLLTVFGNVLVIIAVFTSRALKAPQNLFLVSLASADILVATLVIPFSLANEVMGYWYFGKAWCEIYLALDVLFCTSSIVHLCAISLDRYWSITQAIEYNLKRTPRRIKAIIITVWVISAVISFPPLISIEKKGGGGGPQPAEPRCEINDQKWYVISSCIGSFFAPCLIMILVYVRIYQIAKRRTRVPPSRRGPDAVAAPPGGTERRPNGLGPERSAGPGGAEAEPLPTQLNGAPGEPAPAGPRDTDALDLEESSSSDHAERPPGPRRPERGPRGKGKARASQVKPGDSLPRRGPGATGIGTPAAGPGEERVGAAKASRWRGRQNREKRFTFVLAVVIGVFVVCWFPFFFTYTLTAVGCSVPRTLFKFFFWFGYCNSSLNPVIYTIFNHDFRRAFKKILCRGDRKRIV
Kind of data set: α2A-AR antagonist assay (calcium flux, Fluo-4, FlexStation II). The data set is classed as cell-based. To be noted: antagonistic activity against agonist UK14304 in cells stably expressing α2A-AR/Ga16. From the text: By establishing a cell line co-transfected with the target receptor and Ga16, the receptor can be activated to cause the activation of Gα16 protein, which in turn activates phospholipase C (PLC) to produce IP3 and DAG. IP3 can bind to the IP3 receptors on the endoplasmic reticulum and mitochondria in the cell, thereby causing the release of intracellular calcium. Therefore, measuring the changes in intracellular calcium can be used as a method to detect the activation state of the target receptor. Fluo-4/AM is a calcium fluorescent probe indicator used to measure calcium ions. As a non-polar lipid-soluble compound, after entering the cell, the AM group dissociates under the action of cell lipases and releases Fluo-4; since Fluo-4 is a polar molecule that is not easy to pass through the lipid bilayer membrane, it can keep in the cell for a long time. Finally, the level of Ga protein activation can be reflected by measuring the excited fluorescence intensity.
Before the test, the test compound was dissolved in DMSO to prepare a stock solution, which was diluted with culture medium to the required concentration when used.
In general terms: A change in cytosolic calcium serves as a functional read-out for many receptors and channels.

Data set [1] in a line: Tissue distribution test in mice. To be noted: gavage 10 mg/kg. It is filed as in vivo. The procedure:
Mice were fasted for more than 12 h and had free access to water. Table 3 Experimental Scheme for tissue distribution of Compound C27 in mice
Mice were fasted for more than 12 h and had free access to water.
• (1) Tissue distribution test in mice: The animals in each group were anesthetized and killed 2 h after administration. The brain, pancreas, heart, liver, and kidney tissues were collected by dissection, washed with physiological saline, and stored in a -20 °C refrigerator for testing. At the same time, 0.3 mL of whole blood was collected and placed in an EDTA-K2 anticoagulant tube. The blood was separated by centrifugation at 11,000 rpm for 5 min and stored in a -20 °C refrigerator for testing.
The concentration of unchanged drug in plasma and tissues was determined.
(2) Tissue distribution test of compound C27 in mice: At corresponding time points (0.25, 2 and 8 h) after gavage administration, mice were bled to death through the abdominal aorta. Brain, heart, liver, lung, pancreas and kidney tissues were immediately collected by dissection, and part of the plasma was collected. The operation was carried out in an ice water bath.
Centrifugation conditions: 11000 rpm for 5 min to separate plasma (about 200 µL).

Where [2] appears, read: relative ratio of tissue distribution concentration to blood concentration.

Structures are written as SMILES.

One may read the IC50 as the concentration that gives 50% inhibition.

On to `N#Cc1ccc(Cc2noc([C@@H]3[C@H]4C[C@H]5c6[nH]c7ccccc7c6CCN5C[C@@H]4CC[C@@H]3O)n2)cc1` [Compound C19], for which the “basal blood glucose level” value in the data set with type 2 diabetic mice (chronic intraperitoneal injection, 10 mg/kg once a day, 12 consecutive days (Figure 8)) is listed as “stably maintain the basal blood sugar level of diabetic mice at a state closer to the normal level”; in the data set with type 2 diabetic mice (single intraperitoneal injection, 10 mg/kg (Figure 3)) it was “significantly reduce the high blood sugar level of diabetic mice”. Also, the glucose tolerance result is on record as “improve glucose tolerance” with type 2 diabetic mice (single gavage administration, 10 mg/kg (Figure 6)) and “improve glucose tolerance” in the data set on type 2 diabetic mice (single intraperitoneal injection, 10 mg/kg (Figure 4)). In addition, the insulin sensitivity entry in the data set with type 2 diabetic mice (single gavage administration, 10 mg/kg (Figure 7)) was “increase insulin sensitivity”; with type 2 diabetic mice (single intraperitoneal injection, 10 mg/kg (Figure 5)) it was “increase insulin sensitivity”. Moreover, the half-inhibitory concentration (IC50) at α2A-AR is 0.3 to 0.5 µM. Moreover, the pancreatic distribution entry in data set [1] was “good pancreatic distribution”. In addition, the “brain tissue distribution compared with yohimbine” value in data set [1] (setting [2]) is reported as “lower brain tissue distribution than yohimbine”. The “brain tissue distribution, times lower than that of yohimbine” value in data set [1] (setting [2]) was “about forty times lower”.

(Values after patent EP4624470A1, “YOHIMBINE DERIVATIVE, AND PREPARATION METHOD THEREFOR AND PHARMACEUTICAL COMPOSITION AND USE THEREOF” (Shanghai Institute of Materia Medica, Chinese Academy of …, priority 2022, dated 2024).)
